According to ChEMBL document CHEMBL1833865, “Oleanane-type triterpene saponins from the bark of Aralia elata and their NF-κB inhibition and PPAR activation signal pathway” (Bioorg Med Chem Lett, 2011):
The source made the active and inactive calls. The rule behind the calls is not given here.

Columns and labels:
Format in all cases: cell-based
[1] = tested on: HepG2; experiment: Cytotoxicity against human HepG2 cells assessed as cell viability at 10 uM after 24 hrs by MTS assay; settings: hepg2, 24 h
[2] = target: T1, Peroxisome proliferator-activated receptor alpha (Homo sapiens) (UniProt Q07869); experiment: Transactivation of Gal4-fused PPARalpha ligand binding domain expressed in human HepG2 cells co-transfected with pFR-Luc and pRL-CMV at 0.1 to 10 uM after 20 hrs by dual-luciferase reporter gene assay
T1 sequence (whole entry): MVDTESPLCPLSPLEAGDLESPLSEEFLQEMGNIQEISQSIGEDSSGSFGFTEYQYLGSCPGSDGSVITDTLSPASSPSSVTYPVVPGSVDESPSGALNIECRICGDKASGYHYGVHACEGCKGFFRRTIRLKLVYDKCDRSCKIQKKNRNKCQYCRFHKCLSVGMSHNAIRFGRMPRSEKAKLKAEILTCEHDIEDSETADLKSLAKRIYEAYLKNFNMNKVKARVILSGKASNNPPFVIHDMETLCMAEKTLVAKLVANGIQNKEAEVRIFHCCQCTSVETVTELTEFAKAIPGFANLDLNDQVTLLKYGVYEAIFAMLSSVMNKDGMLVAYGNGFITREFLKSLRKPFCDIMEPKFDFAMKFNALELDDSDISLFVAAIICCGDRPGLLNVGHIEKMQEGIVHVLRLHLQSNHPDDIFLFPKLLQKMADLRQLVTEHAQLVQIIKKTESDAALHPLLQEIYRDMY

[3] = Inhibition of NF-kappaB activation expressed in TNFalpha-stimulated human HepG2 cells co-transfected with […] plasmid pretreated for 1 hr before TNFalpha challenge measured after 24 hrs by luciferase reporter gene assay
[4] = tested on: HepG2; experiment: Inhibition of NF-kappaB activation expressed in human HepG2 cells assessed as reduction in TNFalpha-induced COX2 mRNA expression preincubated 1 hr before TNFalpha challenge measured after 6 hrs by RT-PCR analysis
[5] = tested on: HepG2; experiment: Inhibition of NFkappaB activation expressed in human HepG2 cells assessed as reduction in TNF-alpha-induced iNOS mRNA expression preincubated 1 hr before TNFalpha challenge measured after 6 hrs by RT-PCR analysis
[6] = target: T2, Peroxisome proliferator-activated receptor gamma (Homo sapiens) (UniProt P37231); experiment: Transactivation of Gal4-fused PPARgamma ligand binding domain expressed in human HepG2 cells co-transfected with pFR-Luc and pRL-CMV at 0.1 to 10 uM after 20 hrs by dual-luciferase reporter gene assay
T2 sequence (whole entry): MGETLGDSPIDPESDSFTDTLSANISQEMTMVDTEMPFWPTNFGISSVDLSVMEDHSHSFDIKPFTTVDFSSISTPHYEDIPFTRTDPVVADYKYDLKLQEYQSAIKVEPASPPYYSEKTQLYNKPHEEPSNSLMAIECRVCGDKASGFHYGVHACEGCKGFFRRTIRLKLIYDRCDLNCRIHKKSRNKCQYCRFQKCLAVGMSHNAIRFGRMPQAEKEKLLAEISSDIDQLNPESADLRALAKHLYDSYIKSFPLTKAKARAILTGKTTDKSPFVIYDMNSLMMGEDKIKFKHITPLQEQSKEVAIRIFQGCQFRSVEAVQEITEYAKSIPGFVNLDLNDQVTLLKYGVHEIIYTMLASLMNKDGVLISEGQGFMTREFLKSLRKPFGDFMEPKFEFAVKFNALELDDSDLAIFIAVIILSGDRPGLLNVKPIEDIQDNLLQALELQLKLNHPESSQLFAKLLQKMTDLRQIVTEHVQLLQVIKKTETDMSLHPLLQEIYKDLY

[7] = target: T3, Peroxisome proliferator-activated receptor delta (Homo sapiens) (UniProt Q03181); experiment: Transactivation of Gal4-fused PPARbeta/delta ligand binding domain expressed in human HepG2 cells co-transfected with pFRLuc and pRL-CMV at 0.1 to 10 uM after 20 hrs by dual-luciferase reporter gene assay
T3 sequence (whole entry): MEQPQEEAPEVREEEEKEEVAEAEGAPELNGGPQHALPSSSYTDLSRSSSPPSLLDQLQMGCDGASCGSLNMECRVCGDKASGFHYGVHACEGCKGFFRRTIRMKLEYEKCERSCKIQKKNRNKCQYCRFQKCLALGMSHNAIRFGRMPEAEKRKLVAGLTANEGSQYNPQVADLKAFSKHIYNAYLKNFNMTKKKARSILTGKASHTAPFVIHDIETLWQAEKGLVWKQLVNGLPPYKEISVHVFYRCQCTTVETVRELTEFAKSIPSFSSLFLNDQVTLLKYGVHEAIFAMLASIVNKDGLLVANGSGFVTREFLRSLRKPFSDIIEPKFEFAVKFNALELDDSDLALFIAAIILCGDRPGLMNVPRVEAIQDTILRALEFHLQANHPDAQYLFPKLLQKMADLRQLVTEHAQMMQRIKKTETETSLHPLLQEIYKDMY

SMILES: CC1(C)CC[C@]2(C(=O)O[C@@H]3O[C@H](CO)[C@@H](O)[C@H](O)[C@H]3O)CC[C@]3(C)C(=CC[C@@H]4[C@@]5(C)CC[C@H](O[C@@H]6O[C@H](C(=O)O)[C@@H](O[C@H]7O[C@@H](CO)[C@H](O)[C@H]7O)[C@H](O[C@@H]7O[C@H](CO)[C@@H](O)[C@H](O)[C@H]7O)[C@H]6O)C(C)(C)[C@@H]5CC[C@]43C)[C@@H]2C1 [STIPULEANOSIDE R2]
- Activity [1]: Non-toxic

SMILES: CC1(C)CC[C@]2(C(=O)O[C@@H]3O[C@H](CO)[C@@H](O)[C@H](O)[C@H]3O)CC[C@]3(C)C(=CC[C@@H]4[C@@]5(C)CC[C@H](O[C@@H]6O[C@H](C(=O)O)[C@@H](O)[C@H](O[C@@H]7O[C@H](CO)[C@@H](O)[C@H](O)[C@H]7O)[C@H]6O[C@@H]6OC[C@H](O)[C@H](O)[C@H]6O)C(C)(C)[C@@H]5CC[C@]43C)[C@@H]2C1
- Activity [2]: inactive
- IC50 [3]: 9.5 µM
- Activity [1]: Non-toxic
- inhibition [4]: Dose-dependent effect
- inhibition [5]: Dose-dependent effect
- Activity [6]: Active
- Activity [7]: inactive

SMILES: O=C(O)c1cc(/N=N/c2ccc(S(=O)(=O)Nc3ccccn3)cc2)ccc1O [SULFASALAZINE]
- IC50 [3]: 0.9 µM

SMILES: COC(=O)[C@H]1O[C@@H](O[C@H]2CC[C@]3(C)[C@H]4CC=C5[C@@H]6CC(C)(C)CC[C@]6(C(=O)O[C@@H]6O[C@H](CO)[C@@H](O)[C@H](O)[C@H]6O)CC[C@@]5(C)[C@]4(C)CC[C@H]3C2(C)C)[C@H](O[C@@H]2OC[C@H](O)[C@H](O)[C@H]2O)[C@@H](O[C@@H]2O[C@H](CO)[C@@H](O)[C@H](O)[C@H]2O)[C@@H]1O
- Activity [2]: inactive
- Activity [1]: Non-toxic
- Activity [6]: Active
- Activity [7]: inactive

SMILES: CC1(C)CC[C@]2(C(=O)O[C@@H]3O[C@H](CO[C@@H]4O[C@H](CO)[C@@H](O)[C@H](O)[C@H]4O)[C@@H](O)[C@H](O)[C@H]3O)CC[C@]3(C)C(=CC[C@@H]4[C@@]5(C)CC[C@H](O[C@@H]6O[C@H](C(=O)O)[C@@H](O[C@@H]7O[C@@H](CO)[C@H](O)[C@H]7O)[C@H](O)[C@H]6O[C@@H]6O[C@H](CO[C@@H]7O[C@H](CO)[C@@H](O)[C@H](O)[C@H]7O)[C@@H](O)[C@H](O)[C@H]6O)C(C)(C)[C@@H]5CC[C@]43C)[C@@H]2C1 [ELATOSIDE L]
- IC50 [3]: 4.1 µM
- Activity [1]: Non-toxic
- inhibition [4]: Dose-dependent effect
- inhibition [5]: Dose-dependent effect

SMILES: CC1(C)CC[C@]2(C(=O)O[C@@H]3O[C@H](CO)[C@@H](O)[C@H](O)[C@H]3O)CC[C@]3(C)C(=CC[C@@H]4[C@@]5(C)CC[C@H](O[C@@H]6O[C@H](C(=O)O)[C@@H](O)[C@H](O[C@@H]7O[C@H](CO)[C@H](O)[C@H](O)[C@H]7O)[C@H]6O[C@@H]6O[C@H](CO)[C@H](O)[C@H](O)[C@H]6O)C(C)(C)[C@@H]5CC[C@]43C)[C@@H]2C1 [ELATOSIDE D]
- Activity [2]: inactive
- Activity [1]: Non-toxic
- Activity [6]: Active
- Activity [7]: inactive

SMILES: CC1(C)CC[C@]2(C(=O)O[C@@H]3O[C@H](CO)[C@@H](O)[C@H](O)[C@H]3O)CC[C@]3(C)C(=CC[C@@H]4[C@@]5(C)CC[C@H](O[C@@H]6O[C@H](C(=O)O)[C@@H](O[C@@H]7O[C@@H](CO)[C@H](O)[C@H]7O)[C@H](O)[C@H]6O[C@@H]6O[C@H](CO)[C@@H](O)[C@H](O)[C@H]6O)C(C)(C)[C@@H]5CC[C@]43C)[C@@H]2C1 [TARASAPONIN IV]
- Activity [1]: Non-toxic
